# Results reported in patent US12673036B2, “Method of using L-triiodothyronine (T3) for the treatment of tissue hypoxia and sepsis” (UNI-PHARMA KLEON TSETIS PHARMACEUTICAL LABORATORIES S.A., priority 2020, dated 2026).
# Where two headings read alike, the source gives them in different places.
# Columns and labels:
# [1] = test system: patients with non-ST-segment elevation myocardial infarction; settings: patients with NSTEMI; cited from earlier work
# [2] = test system: xenograft models (non-small cell lung, multiple myeloma, breast, glioblastoma, and ovary); settings: cited from earlier work
# isolated rat heart = experiment: Isolated rat heart, prolonged 4 hour hypoxic perfusion ex vivo
# Excerpt: (§1) The isolated rat heart model was used to simulate non-ischemic conditions of tissue hypoxia ex vivo. In this study, rat hearts were only perfused with oxygenated Krebs buffer containing electrolytes and glucose under normothermia. Despite normal perfusion, the organ gradually develops significant dysfunction over hours due to the absence of erythrocytes and hemoglobin that create hypoxic conditions. […] It should be noted that such an increase in LVEDP may lead to pulmonary edema in vivo. Furthermore, the force of contraction was reduced as evident by a 25% decrease in left ventricular developed pressure (LVDP) in Control hearts (FIG. 2).
# sepsis = settings: rat sepsis models; cited from earlier work
# male C57BL/6N mice = experiment: Cecal ligation and puncture (CLP) sepsis model; assay type: in vivo
# Method: The effect of T3 administration in high dosages in the treatment of tissue hypoxia due to microvascular dysfunction occurring in the myocardium, kidneys and liver is evaluated in a sepsis experimental model using male C57BL/6N mice of 10-12 weeks age. The animal studies were carried out in compliance with all necessary regulations in force.
# The simulation of the clinical conditions during sepsis leading to tissue hypoxia and microvascular dysfunction is achieved following the most widely used clinical model of cecal ligation and puncture (CLP). In this experimental model, ligation distal to the ileocecal valve (25% of total cecum length) and perforation by a single 21 G puncture is performed under sevoflurane anesthesia causing leakage of fecal contents into the peritoneum, with subsequent polymicrobial bacteremia and sepsis. The perforation of the cecum allows the release of fecal material into the peritoneal cavity to generate an exacerbated immune response induced by polymicrobial infection. In this model, sepsis causes systemic activation of the inflammatory response, microvascular dysfunction, tissue hypoxia, multi-organ failure, and hemodynamic disorder that results in death as in clinical practice.
# The animals are supported by subcutaneous fluid administration every 8 hours and administration of buprenorphine 0.1 mg/kg and paracetamol 300 mg/kg, as is the case with septic patients in the intensive care unit (ICU). All animals are closely monitored for their clinical status based on a modified score scale known as the Lipopolysaccharide (LPS) Score Sheet.
# The animals divide into 2 groups: the first group receives placebo (placebo group) and the second group receives intraperitoneally a dose of 0.3 μg T3/g of body weight, immediately after surgery (group T3). Based on guidelines for converting doses from experimental animals to equivalent doses in humans (Nair, A B and Jacob S. A simple practice guide for dose conversion between animals and humans. I Basic C/in Pharma 2016, 7: 27-31), the dose of 0.3 μg T3/g of body weight, corresponds roughly to intravenous administration of 7 μg T3/Kg body weight, i.e., from 400 to 600 μg T3 for a patient weighing 60-80 Kg. This dose is very high and beyond any T3 treatment in hypothyroid patients. The study is performed in two separate experiments. In the first experimental protocol, the clinical condition of the animals and mortality after 72 hours is examined, while in the second experimental protocol, tissue hypoxia at the cellular level after euthanasia at 18 hours is studied.
# Initially, lactate levels in blood samples are measured (using L-lactate assay kit from Sigma-Aldrich, MAK329) as a general indicator of hypoxia, which is also commonly used in clinical practice in patients with sepsis. Furthermore, creatinine levels in blood are measured as an indicator of renal function (using the Mouse Creatinine Kit Cat. 80350, Crystal Chem). Finally, an echocardiographic analysis is performed in order to evaluate the end-diastolic and end-systolic volume, the ejection fraction and the pulse volume according to the Simpson rule.
# Echocardiographic analysis was performed after mild anesthesia with sevoflurane (0.8%) and placing the animal in a heated blanket. Echocardiographic images were then taken along the longitudinal and transverse sternal axis with the Vivid 7 version Pro ultrasound system (GE Healthcare, Wauwatosa, Wisconsin), equipped with a 14.0-MHz probe (i13L).
# Tissue hypoxia at the cellular level is determined in frozen fixed tissues in 4% paraformaldehyde based on the standard method of pimonidazole administration using the Hypoxyprobe™ Plus kit. Pimonidazole is dissolved and administered intravenously in mice at a dose of 60 mg/kg, 2 hours before euthanasia. After intracardiac infusion with paraformaldehyde, the organs are fixed, removed and dehydrated for 5 days in 30% sucrose solution. […]
# p38 MAPK [3] = experiment: p38 MAPK activation in isolated rat heart after 4 hours hypoxic perfusion; settings: after 4 hours of prolonged hypoxic perfusion, p<0.05
# Excerpt: as §1
# p38 MAPK [4] = settings: T3 40 μg/L, P<0.05, cited from earlier work
# [5] = 40 μg/L after first 30 min of hypoxic perfusion, 4 hours
# [6] = 18 hours after sepsis induction
structure (smiles),measurement,setting,value
Cc1c(F)cc(C(=O)NC2CC2)cc1-c1ccc(C(=O)NCC(C)(C)C)cn1 [Losmapimod],myocardial protective effects,[1],presented myocardial protective effects
CC(C)(C)Cn1c(N)nc2ccc(-c3[nH]c(C(C)(C)C)nc3-c3ccc(F)cc3)nc21 [Ralimetinib],antineoplastic activity as a single agent,[2],demonstrated antineoplastic activity
"N[C@@H](Cc1cc(I)c(Oc2ccc(O)c(I)c2)c(I)c1)C(=O)O [T3, L-triiodothyronine]",diastolic dysfunction,isolated rat heart; [5],attenuated diastolic dysfunction
same,left ventricular end-diastolic pressure (LVEDP),isolated rat heart; [5],maintained LVEDP at normal values
same,"force of contraction (left ventricular developed pressure, LVDP)","isolated rat heart; 40 μg/L, after 4 hours",improved force of contraction
same,perfusion pressure of coronary vessels (microvascular dysfunction),isolated rat heart; after 4 hours hypoxic perfusion,lower perfusion pressure
same,cytokine storm,sepsis,reduce cytokine storm
same,lung function and surfactant synthesis,sepsis,maintain lung function and surfactant synthesis
same,survival,sepsis,improve survival
same,creatinine levels,male C57BL/6N mice; 18 hours after sepsis,did not increase
same,hepatic tissue hypoxia (pimonidazole),male C57BL/6N mice; 18 hours after sepsis,statistically significant reduction
same,renal tissue hypoxia (pimonidazole) in OSOM and ISOM,male C57BL/6N mice; 18 hours after sepsis,significantly reduce
same,ejection fraction (echocardiography),male C57BL/6N mice; [6],within normal range
same,pulse volume (echocardiography),male C57BL/6N mice; [6],within normal range
same,lactic acid levels in blood,"male C57BL/6N mice; 18 hours after sepsis, 0.3 μg T3/g i.p.",decrease
same,"myocardial tissue hypoxia, pimonidazole-positive tissue of the left ventricular total tissue","male C57BL/6N mice; 18 hours, p=0.028 vs placebo",1.5%±0.5
same,lactic acid levels in blood,"male C57BL/6N mice; 24 hours after sepsis, 0.3 μg T3/g i.p.",decrease
same,animals surviving,"male C57BL/6N mice; 72 hours after CLP, 0.3 μg T3/g i.p.",up to 20%
same,heart rate,male C57BL/6N mice; after sepsis induction,within normal range
same,prevention of p38 MAPK activation,p38 MAPK [3],3 fold
same,"phospho-p38 MAPK levels, less than control",p38 MAPK [4]; after 5 minutes of reperfusion,2.3 fold
same,"phospho-p38 MAPK levels, less than control",p38 MAPK [4]; after 15 minutes of reperfusion,2.1 fold
